Reference: patent publication US20250114486A1, “MARKED FATTY ACID DERIVATIVE, PRECURSOR COMPOUND THEREOF, AND USE THEREOF IN CONTRAST AGENT” (BEIJING NORMAL UNIVERSITY, priority 2022, published 2025)
Each block holds one molecule with its values, some of them ahead of it.

Assay: In vivo biodistribution of radioactive ^99mTc complexes in female SD rats
Parameters: species or system female Sprague-Dawley (SD) rats
Settings: for Biodistribution: Large Intestine / Biodistribution: Small Intestine / Biodistribution: Stomach: unit % ID; for absolute myocardial uptake peak value: peak at 60 min post-injection
Description: Female SD rats (180-220 g, n=3) were fasted for 12 h before the experiment, and the purified radioactive 99mTc complexes 78-81 were prepared into physiological saline (containing 10% ethanol) solutions of about 250-350 μCi/mL. 200 μL of the above solution was injected into the tail vein of female SD rats, and the rats were killed by cervical dislocation at five time points, 15, 30, 60, 120 and 240 min after the tail vein injection. The blood, brain, heart, liver, spleen, lung, kidney, muscle, bone, large intestine, small intestine, stomach and tail were collected, weighed and counted, and the count distribution of each tissue and organ was calculated (unit: % ID/g, the unit of large intestine, small intestine and stomach is % ID), and the data are the mean±standard deviation of three mice in each phase. At the same time, 200 μL of the above solution was diluted to 20 mL, which was used as the % ID without deducting the tail count.

absolute myocardial uptake values (comparison with complexes 79-81): lower than the above values
heart-to-liver ratios (comparison with complexes 79-81): lower than the above values
Compound: COC(C)(C)C[N+]#[C][99Tc-5]([C]#[N+]CC(C)(C)OC)([C]#[N+]CC(C)(C)OC)([C]#[N+]CC(C)(C)OC)([C]#[N+]CC(C)(C)OC)[C]#[N+]CC(C)(C)OCCSCCCCC(=O)O [^99mTc complex 78]

Biodistribution: Blood (15 min post-injection): 0.11 ± 0.02 ID %/g
Biodistribution: Bone (15 min post-injection): 0.13 ± 0.02 ID %/g
Biodistribution: Brain (15 min post-injection): 0.021 ± 0.005 ID %/g
Biodistribution: Heart (15 min post-injection): 1.50 ± 0.27 ID %/g
Biodistribution: Kidney (15 min post-injection): 4.87 ± 0.72 ID %/g
Biodistribution: Liver (15 min post-injection): 1.28 ± 0.19 ID %/g
Biodistribution: Lungs (15 min post-injection): 0.30 ± 0.06 ID %/g
Biodistribution: Muscle (15 min post-injection): 0.24 ± 0.06 ID %/g
Biodistribution: Spleen (15 min post-injection): 0.52 ± 0.10 ID %/g
Heart-to-Blood ratio (15 min post-injection): 13.99 ± 3.55
Heart-to-Liver ratio (15 min post-injection): 1.22 ± 0.33
Heart-to-Lungs ratio (15 min post-injection): 5.16 ± 0.69
absolute myocardial uptake value (15 min post-injection): 1.50±0.27 % ID/g
Biodistribution: Large Intestine (15 min post-injection): 0.76 ± 0.20 % ID
Biodistribution: Small Intestine (15 min post-injection): 14.70 ± 0.78 % ID
Biodistribution: Stomach (15 min post-injection): 0.51 ± 0.05 % ID
Biodistribution: Blood (30 min post-injection): 0.09 ± 0.01 ID %/g
Biodistribution: Bone (30 min post-injection): 0.09 ± 0.01 ID %/g
Biodistribution: Brain (30 min post-injection): 0.012 ± 0.005 ID %/g
Biodistribution: Heart (30 min post-injection): 2.24 ± 0.31 ID %/g
Biodistribution: Kidney (30 min post-injection): 3.37 ± 0.38 ID %/g
Biodistribution: Liver (30 min post-injection): 1.38 ± 0.16 ID %/g
Biodistribution: Lungs (30 min post-injection): 0.27 ± 0.03 ID %/g
Biodistribution: Muscle (30 min post-injection): 0.81 ± 0.14 ID %/g
Biodistribution: Spleen (30 min post-injection): 0.16 ± 0.01 ID %/g
Heart-to-Blood ratio (30 min post-injection): 25.88±5.10
Heart-to-Liver ratio (30 min post-injection): 1.63 ± 0.27
absolute myocardial uptake value (30 min post-injection): 2.24±0.31 % ID/g
Biodistribution: Large Intestine (30 min post-injection): 12.06 ± 3.78 % ID
Biodistribution: Small Intestine (30 min post-injection): 25.98 ± 3.13 % ID
Biodistribution: Stomach (30 min post-injection): 0.47 ± 0.15 % ID
Biodistribution: Blood (60 min post-injection): 0.04 ± 0.01 ID %/g
Biodistribution: Bone (60 min post-injection): 0.05 ± 0.01 ID %/g
Biodistribution: Brain (60 min post-injection): 0.009 ± 0.001 ID %/g
Biodistribution: Heart (60 min post-injection): 2.45 ± 0.35 ID %/g
Biodistribution: Kidney (60 min post-injection): 1.65 ± 0.53 ID %/g
Biodistribution: Liver (60 min post-injection): 0.66 ± 0.12 ID %/g
Biodistribution: Lungs (60 min post-injection): 0.14 ± 0.02 ID %/g
Biodistribution: Muscle (60 min post-injection): 0.47 ± 0.10 ID %/g
Biodistribution: Spleen (60 min post-injection): 0.09 ± 0.02 ID %/g
Heart-to-Blood ratio (60 min post-injection): 56.19±13.56
Heart-to-Liver ratio (60 min post-injection): 3.82±1.21
Heart-to-Lungs ratio (60 min post-injection): 17.12±3.09
absolute myocardial uptake value (60 min post-injection): 2.45±0.35 % ID/g
Biodistribution: Large Intestine (60 min post-injection): 16.70 ± 2.72 % ID
Biodistribution: Small Intestine (60 min post-injection): 22.54 ± 5.67 % ID
Biodistribution: Stomach (60 min post-injection): 0.19 ± 0.06 % ID
Biodistribution: Blood (120 min post-injection): 0.012 ± 0.002 ID %/g
Biodistribution: Bone (120 min post-injection): 0.04 ± 0.01 ID %/g
Biodistribution: Brain (120 min post-injection): 0.009 ± 0.002 ID %/g
Biodistribution: Heart (120 min post-injection): 1.54 ± 0.45 ID %/g
Biodistribution: Kidney (120 min post-injection): 0.65 ± 0.14 ID %/g
Biodistribution: Liver (120 min post-injection): 0.28 ± 0.01 ID %/g
Biodistribution: Lungs (120 min post-injection): 0.11 ± 0.03 ID %/g
Biodistribution: Muscle (120 min post-injection): 0.21 ± 0.05 ID %/g
Biodistribution: Spleen (120 min post-injection): 0.05 ± 0.01 ID %/g
Heart-to-Blood ratio (120 min post-injection): 118.25±44.79
Heart-to-Liver ratio (120 min post-injection): 5.55±1.38
Heart-to-Lungs ratio (120 min post-injection): 15.05±5.27
absolute myocardial uptake value (120 min post-injection): 1.54 0.45 % ID/g
Biodistribution: Large Intestine (120 min post-injection): 27.61 ± 2.20 % ID
Biodistribution: Small Intestine (120 min post-injection): 5.24 ± 0.78 % ID
Biodistribution: Stomach (120 min post-injection): 0.22 ± 0.03 % ID
Biodistribution: Blood (240 min post-injection): 0.025 ± 0.003 ID %/g
Biodistribution: Bone (240 min post-injection): 0.13 ± 0.03 ID %/g
Biodistribution: Brain (240 min post-injection): 0.007 ± 0.002 ID %/g
Biodistribution: Heart (240 min post-injection): 0.60 ± 0.04 ID %/g
Biodistribution: Kidney (240 min post-injection): 0.22 ± 0.02 ID %/g
Biodistribution: Liver (240 min post-injection): 0.24 ± 0.01 ID %/g
Biodistribution: Lungs (240 min post-injection): 0.09 ± 0.01 ID %/g
Biodistribution: Muscle (240 min post-injection): 0.27 ± 0.02 ID %/g
Biodistribution: Spleen (240 min post-injection): 0.11 ± 0.01 ID %/g
Heart-to-Blood ratio (240 min post-injection): 24.36±1.72
Heart-to-Liver ratio (240 min post-injection): 2.45 ± 0.18
Heart-to-Lungs ratio (240 min post-injection): 6.66±0.60
absolute myocardial uptake value (240 min post-injection): 0.60±0.04 % ID/g
Biodistribution: Large Intestine (240 min post-injection): 33.40 ± 4.10 % ID
Biodistribution: Small Intestine (240 min post-injection): 4.53 ± 0.88 % ID
Biodistribution: Stomach (240 min post-injection): 0.20 ± 0.02 % ID
absolute myocardial uptake peak value: 2.45±0.35 % ID/g
Compound: COC(C)(C)C[N+]#[C][99Tc-5]([C]#[N+]CC(C)(C)OC)([C]#[N+]CC(C)(C)OC)([C]#[N+]CC(C)(C)OC)([C]#[N+]CC(C)(C)OC)[C]#[N+]CC(C)(C)OCCCCSCCCCC(=O)O [^99mTc complex 79]

Biodistribution: Blood (15 min post-injection): 0.018 ± 0.001 ID %/g
Biodistribution: Bone (15 min post-injection): 0.24 ± 0.05 ID %/g
Biodistribution: Heart (15 min post-injection): 3.37 ± 0.15 ID %/g
Biodistribution: Kidney (15 min post-injection): 9.30 ± 0.20 ID %/g
Biodistribution: Liver (15 min post-injection): 1.79 ± 0.26 ID %/g
Biodistribution: Lungs (15 min post-injection): 0.86 ± 0.17 ID %/g
Biodistribution: Muscle (15 min post-injection): 0.72 ± 0.11 ID %/g
Biodistribution: Spleen (15 min post-injection): 0.70 ± 0.06 ID %/g
Heart-to-Blood ratio (15 min post-injection): 192.24 ± 13.25
Heart-to-Liver ratio (15 min post-injection): 1.93 ± 0.26
Heart-to-Lungs ratio (15 min post-injection): 4.44 ± 0.26
absolute myocardial uptake value (15 min post-injection): 3.37±0.15 % ID/g
Biodistribution: Large Intestine (15 min post-injection): 6.53 ± 0.73 % ID
Biodistribution: Small Intestine (15 min post-injection): 12.23 ± 2.35 % ID
Biodistribution: Stomach (15 min post-injection): 1.05 ± 0.04 % ID
Biodistribution: Blood (30 min post-injection): 0.016 ± 0.002 ID %/g
Biodistribution: Bone (30 min post-injection): 0.15 ± 0.01 ID %/g
Biodistribution: Heart (30 min post-injection): 3.45 ± 0.19 ID %/g
Biodistribution: Kidney (30 min post-injection): 5.21 ± 1.54 ID %/g
Biodistribution: Liver (30 min post-injection): 1.11± 0.16 ID %/g
Biodistribution: Lungs (30 min post-injection): 0.575 ± 0.002 ID %/g
Biodistribution: Muscle (30 min post-injection): 0.37 ± 0.06 ID %/g
Biodistribution: Spleen (30 min post-injection): 0.88 ± 0.13 ID %/g
Heart-to-Blood ratio (30 min post-injection): 220.61±45.73
Heart-to-Liver ratio (30 min post-injection): 3.30 ± 0.42
Heart-to-Lungs ratio (30 min post-injection): 6.00 ± 0.31
absolute myocardial uptake value (30 min post-injection): 3.45±0.19 % ID/g
Biodistribution: Large Intestine (30 min post-injection): 14.01 ± 1.87 % ID
Biodistribution: Small Intestine (30 min post-injection): 17.82 ± 0.19 % ID
Biodistribution: Stomach (30 min post-injection): 0.65 ± 0.11 % ID
Biodistribution: Blood (60 min post-injection): 0.009 ± 0.001 ID %/g
Biodistribution: Bone (60 min post-injection): 0.14 ± 0.01 ID %/g
Biodistribution: Heart (60 min post-injection): 3.98 ± 0.25 ID %/g
Biodistribution: Kidney (60 min post-injection): 4.90 ± 0.17 ID %/g
Biodistribution: Liver (60 min post-injection): 0.60 ± 0.12 ID %/g
Biodistribution: Lungs (60 min post-injection): 0.28 ± 0.07 ID %/g
Biodistribution: Muscle (60 min post-injection): 0.77 ± 0.13 ID %/g
Biodistribution: Spleen (60 min post-injection): 0.34 ± 0.04 ID %/g
Heart-to-Blood ratio (60 min post-injection): 449.52±67.26
Heart-to-Lungs ratio (60 min post-injection): 14.35 ± 2.38
absolute myocardial uptake value (60 min post-injection): 3.98±0.25 % ID/g
Biodistribution: Large Intestine (60 min post-injection): 6.44 ± 0.70 % ID
Biodistribution: Small Intestine (60 min post-injection): 15.98 ± 1.55 % ID
Biodistribution: Stomach (60 min post-injection): 0.46 ± 0.11 % ID
Biodistribution: Blood (120 min post-injection): 0.020 ± 0.004 ID %/g
Biodistribution: Bone (120 min post-injection): 0.12 ± 0.01 ID %/g
Biodistribution: Heart (120 min post-injection): 2.83 ± 0.25 ID %/g
Biodistribution: Kidney (120 min post-injection): 4.03 ± 0.24 ID %/g
Biodistribution: Liver (120 min post-injection): 0.36 ± 0.05 ID %/g
Biodistribution: Lungs (120 min post-injection): 0.27 ± 0.03 ID %/g
Biodistribution: Muscle (120 min post-injection): 0.60 ± 0.11 ID %/g
Biodistribution: Spleen (120 min post-injection): 0.25 ± 0.04 ID %/g
Heart-to-Blood ratio (120 min post-injection): 146.14±22.27
Heart-to-Liver ratio (120 min post-injection): 7.91 ± 0.50
Heart-to-Lungs ratio (120 min post-injection): 10.43 ± 0.62
absolute myocardial uptake value (120 min post-injection): 2.83±0.25 % ID/g
Biodistribution: Large Intestine (120 min post-injection): 19.30 ± 1.11 % ID
Biodistribution: Small Intestine (120 min post-injection): 24.46 ± 3.26 % ID
Biodistribution: Stomach (120 min post-injection): 0.92 ± 0.03 % ID
Biodistribution: Blood (240 min post-injection): 0.016 ± 0.002 ID %/g
Biodistribution: Bone (240 min post-injection): 0.036 ± 0.005 ID %/g
Biodistribution: Heart (240 min post-injection): 2.29 ± 0.05 ID %/g
Biodistribution: Kidney (240 min post-injection): 2.07 ± 0.17 ID %/g
Biodistribution: Liver (240 min post-injection): 0.17 ± 0.03 ID %/g
Biodistribution: Lungs (240 min post-injection): 0.15 ± 0.02 ID %/g
Biodistribution: Muscle (240 min post-injection): 0.48 ± 0.06 ID %/g
Biodistribution: Spleen (240 min post-injection): 0.12 ± 0.02 ID %/g
Heart-to-Blood ratio (240 min post-injection): 143.42±25.82
Heart-to-Liver ratio (240 min post-injection): 11.82 ± 1.15
Heart-to-Lungs ratio (240 min post-injection): 15.97 ± 2.41
absolute myocardial uptake value (240 min post-injection): 2.29±0.05 % ID/g
Biodistribution: Large Intestine (240 min post-injection): 27.81 ± 4.20 % ID
Biodistribution: Small Intestine (240 min post-injection): 13.00 ± 1.55 % ID
Biodistribution: Stomach (240 min post-injection): 0.30 ± 0.08 % ID
absolute myocardial uptake peak value: 3.98±0.25 % ID/g
Compound: COC(C)(C)C[N+]#[C][99Tc-5]([C]#[N+]CC(C)(C)OC)([C]#[N+]CC(C)(C)OC)([C]#[N+]CC(C)(C)OC)([C]#[N+]CC(C)(C)OC)[C]#[N+]CC(C)(C)OCCCCCCSCCCCC(=O)O [^99mTc complex 81]
myocardial absolute uptake peak value (assessment): close to the corresponding value of myocardial perfusion imaging agent ^99mTc-MIBI
